Measured values taken from ChEMBL document CHEMBL2311427, “Bioactive barrigenol type triterpenoids from the leaves of Xanthoceras sorbifolia Bunge” (Eur J Med Chem, 2013).

Experiments:
Type in all cases: functional, cell-based
HepG2 = assay: Antitumor activity against human HepG2 cells assessed as growth inhibition measured after 48 hrs by MTT assay; settings: HepG2, 48 h
HeLa = assay: Antitumor activity against human HeLa cells assessed as growth inhibition measured after 48 hrs by MTT assay
MCF7 = assay: Antitumor activity against human MCF7 cells assessed as growth inhibition measured after 48 hrs by MTT assay; settings: MCF7, 48 h

Row | Structure (SMILES) | IC50 (HepG2) | IC50 (HeLa) | IC50 (MCF7)
1 | C/C=C(/C)C(=O)O[C@H]1[C@H](OC(=O)/C(C)=C\C)[C@]2(CO)[C@H](O)[C@H](O)[C@]3(C)C(=CC[C@@H]4[C@@]5(C)CC[C@H](O[C@@H]6O[C@H](CO[C@@H]7O[C@H](CO)[C@@H](O)[C@H](O)[C@H]7O)[C@@H](O)[C@H](O)[C@H]6O[C@@H]6O[C@@H](CO)[C@H](O)[C@H]6O)C(C)(C)[C@@H]5CC[C@]43C)[C@@H]2CC1(C)C | 9.21 µM | 7.56 µM | 9.62 µM
2 | COc1cc([C@@H]2c3cc4c(cc3[C@@H](O[C@@H]3O[C@@H]5CO[C@@H](C)O[C@H]5[C@H](O)[C@H]3O)[C@H]3COC(=O)[C@H]23)OCO4)cc(OC)c1O [ETOPOSIDE] | 9.14 µM | 8.32 µM | 59.8 µM
3 | C[C@@H]1O[C@@H](O[C@H]2[C@H](OC[C@@]34CC[C@]5(C)C(=CC[C@@H]6[C@@]7(C)CC[C@H](O[C@@H]8O[C@H](CO[C@@H]9O[C@H](CO)[C@@H](O)[C@H](O)[C@H]9O)[C@@H](O)[C@H](O)[C@H]8O)C(C)(C)[C@@H]7CC[C@]65C)[C@@H]3CC(C)(C)[C@@H](O)[C@@H]4O)O[C@H](CO[C@@H]3O[C@H](CO)[C@@H](O)[C@H](O)[C@H]3O)[C@@H](O)[C@@H]2O)[C@H](O)[C@H](O)[C@H]1O [XANIFOLIA O54] | 7.25 µM | 3.98 µM | 7.29 µM
4 | C[C@@H]1O[C@@H](O[C@H]2[C@H](OC[C@@]34CC[C@]5(C)C(=CC[C@@H]6[C@@]7(C)CC[C@H](O[C@@H]8O[C@H](CO[C@@H]9O[C@H](CO)[C@@H](O)[C@H](O)[C@H]9O)[C@@H](O)[C@H](O)[C@H]8O)C(C)(C)[C@@H]7CC[C@]65C)[C@@H]3CC(C)(C)[C@@H](O)[C@@H]4O)O[C@H](CO)[C@@H](O)[C@@H]2O)[C@H](O)[C@H](O)[C@H]1O | 31.5 µM | 18.8 µM | 25.4 µM
5 | CC(=O)O[C@H]1C(=O)[C@@]2(C)[C@H]([C@H](OC(=O)c3ccccc3)[C@]3(O)C[C@H](OC(=O)[C@H](O)[C@@H](NC(=O)c4ccccc4)c4ccccc4)C(C)=C1C3(C)C)[C@]1(OC(C)=O)CO[C@@H]1C[C@@H]2O [PACLITAXEL] | 61.8 µM |  | 77.2 µM
6 | C/C=C(/C)C(=O)O[C@H]1[C@H](O[C@H]2CC[C@]3(C)[C@H]4CC=C5[C@@H]6CC(C)(C)[C@@H](O)[C@H](O)[C@]6(CO[C@@H]6O[C@H](CO[C@@H]7O[C@H](CO)[C@@H](O)[C@H](O)[C@H]7O)[C@@H](O)[C@H](O)[C@H]6O[C@@H]6O[C@@H](C)[C@H](O)[C@@H](O)[C@H]6O)CC[C@@]5(C)[C@]4(C)CC[C@H]3C2(C)C)O[C@H](CO[C@@H]2O[C@H](CO)[C@@H](O)[C@H](O)[C@H]2O)[C@@H](O)[C@@H]1O | > 100 µM | > 100 µM | > 100 µM
7 | C/C=C(/C)C(=O)O[C@@H]1[C@@H](O)[C@H](O[C@H]2CC[C@]3(C)[C@H]4CC=C5[C@@H]6CC(C)(C)[C@@H](O)[C@H](O)[C@]6(CO[C@@H]6O[C@H](CO[C@@H]7O[C@H](CO)[C@@H](O)[C@H](O)[C@H]7O)[C@@H](O)[C@H](O)[C@H]6O[C@@H]6O[C@@H](C)[C@H](O)[C@@H](O)[C@H]6O)CC[C@@]5(C)[C@]4(C)CC[C@H]3C2(C)C)O[C@H](CO[C@@H]2O[C@H](CO)[C@@H](O)[C@H](O)[C@H]2O)[C@H]1O | > 100 µM | > 100 µM | > 100 µM
8 | O=c1[nH]cc(F)c(=O)[nH]1 [FLUOROURACIL] | > 100 µM | 14.8 µM | > 100 µM
9 | Oc1ccc(/C=C/c2cc(O)cc(O)c2)cc1 [RESVERATROL] | > 100 µM | 58.9 µM | > 100 µM
10 | C/C=C(/C)C(=O)O[C@H]1[C@H](OC(=O)/C(C)=C\C)[C@]2(CO)[C@H](O)[C@H](O)[C@]3(C)C(=CC[C@@H]4[C@@]5(C)CC[C@H](O[C@@H]6O[C@H](C(=O)OC)[C@@H](O)[C@H](O)[C@H]6O[C@@H]6O[C@H](CO)[C@@H](O)[C@H](O)[C@H]6O)C(C)(C)[C@@H]5CC[C@]43C)[C@@H]2CC1(C)C | 43.7 µM | 81.6 µM | > 100 µM
